According to US20250127796A1, “METHODS OF TREATING CANCER WITH PI3K INHIBITOR, GDC-0077” (Genentech, Inc., priority 2018, published 2025):
Read-outs that look alike come from different tables or passages of the source.

Key:
[1] = tested on: PIK3CA-mutant breast cancer cell lines; assay: proliferation and apoptosis of PIK3CA-mutant breast cancer cell lines; assay type: cell-based; settings: nonclinical studies
[2] = tested on: human breast xenograft models harboring PIK3CA mutations; assay: tumor growth in human breast xenograft models harboring PIK3CA mutations; assay type: in vivo; settings: nonclinical studies
[3] = tested on: pAKT, pPRAS40, and pS6; assay: downstream PI3K-pathway markers; assay type: cell-based; settings: nonclinical studies
[4] = tested on: Class I PI3K beta, delta, and gamma isoforms; settings: selectivity of alpha over beta; cited from earlier work
[5] = tested on: tumor cells bearing mutant PI3K; settings: mutant versus WT PI3K cells; cited from earlier work
[6] = in combination with letrozole; cited from earlier work
[7] = in combination with fulvestrant; cited from earlier work

| Compound | proliferation and apoptosis of PIK3CA-mutant breast cancer cell lines [1] | tumor growth in human breast xenograft models harboring PIK3CA mutations [2] | downstream PI3K-pathway markers, including pAKT, pPRAS40, and pS6 [3] | less potent biochemical inhibition for other Class I PI3K beta, delta, and gamma isoforms (versus PI3K alpha) [4] | potency in mutant PI3K tumor cells over wild type (WT) PI3K cells [5] | patients who required ≥1 dose reduction of palbociclib [6] | patients who required ≥1 dose reduction of palbociclib [7] |
| --- | --- | --- | --- | --- | --- | --- | --- |
| C[C@H](Nc1ccc2c(c1)OCCn1cc(N3C(=O)OC[C@H]3C(F)F)nc1-2)C(N)=O [GDC-0077, (S)-2-((2-((S)-4-(difluoromethyl)-2-oxooxazolidin-3-yl)-5,6-dihydrobenzo[f]imidazo[1,2-d][1,4]oxazepin-9-yl)amino)propanamide] | inhibits proliferation and induces apoptosis | inhibits tumor growth | reduces downstream PI3K-pathway markers | > 300 fold | increased potency in tumor cells bearing mutant PI3K over wild type (WT) PI3K cells |  |  |
| CC(=O)c1c(C)c2cnc(Nc3ccc(N4CCNCC4)cn3)nc2n(C2CCCC2)c1=O [palbociclib, 6-acetyl-8-cyclopentyl-5-methyl-2-(5-(piperazin-1-yl)pyridin-2-ylamino)pyrido[2,3-d]pyrimidin-7(8H)-one] |  |  |  |  |  | 36% | 34% |
